These results are taken from patent US20250122166A1, “SUBSTITUTED N-((2-(2,6-DIOXOPIPERIDIN-3-YL)-1-OXOISOINDOLIN-4-YL)METHYL)BENZAMIDE ANALOGS AS MODULATORS OF CEREBLON PROTEIN” (ST. JUDE CHILDREN'S RESEARCH HOSPITAL, INC., priority 2021, published 2025).

One test deals with neosubstrate degradation. As to conditions: relative to lenalidomide; cited from earlier work.
The target in the next test is 6XHis-CRBN-DDB1 protein (Homo sapiens (Human), UniProt Q96SW2). Description: CRBN fluorescence polarization assay (competitive, Cy5-O-Len probe). The following applies: 6XHis-CRBN-DDB1 200 nM, Cy5-O-Len probe 30 nM, 1 hour; mean of three determinations; read-out: CRBN FP (IC50). It is filed as binding. How it is done:
In this competitive fluorescent polarization assay Cy5 conjugated lenalidomide analog (Cy5—O-Len)^1 was used as a fluorescent probe. 6XHis-CRBN-DDB1 protein (200 nM) and Cy5—O-Len probe (30 nM) were combined in 20 mM HEPES pH 7, 150 mM NaCl, 0.005% Tween-20 assay buffer. 20 μL of this assay cocktail was dispensed into wells of Corning 3821 black 384-well plates. Compounds were transferred to the assay plate from a dose-response plate using a Pintool on a Biomek FXP Laboratory Automation Workstation (Beckman Coulter). The plates were incubated in the dark for 1 hour at room temperature and then read on an Envision plate reader (PerkinElmer, Massachusetts, USA). IC50 values were determined using a proprietary software RISE (Robust Investigation of Screening Experiments), developed in house on the Pipeline Pilot platform (Biovia, v. 17.2.0). Data represent the mean of three independent determinations.

In another test the test system is MOLM-13 cells. Kind of test: Cell proliferation assay (Cell Titer-Glo, 72 h). It is filed as cell-based. The following applies: Homo sapiens, 72 h incubation, * = cytostatic 50%. The protocol: MOLM-13 cell line was purchased from the Leibniz Institute DSMZ (ACC 554). The cells were cultured according to recommendations in RPMI 1640 cell culture media with 20% FBS (DSMZ). Exponentially growing MOLM-13 cells were plated at 1250 cells per well in Corning 8804BC white 384-well assay plates and incubated overnight at 37° C. in a humidified 5% CO2 incubator. Compounds were transferred to the assay plate from a dose-response plate using a Pintool on a Biomek FXP Laboratory Automation Workstation (Beckman Coulter). Cytotoxicity was determined following 72 hours of incubation using Promega Cell Titer Glo reagent according to the manufacturer's recommendation. Luminescence was measured on an Envision plate reader (Perkin-Elmer).
Compounds were screened in human cancer cell lines and each cell line was cultured in the complete medium recommended by the vendor and seeded in Corning 8804BC white 384-well assay plates at density of 1250 cells per well for MOLM-13 cells. After overnight incubation at 37° C. in a humidified 5% CO2 incubator, cells were treated with compounds in dose-response format using a Pintool on a Biomek FXP Laboratory Automation Workstation (Beckman Coulter). After 72h incubation, cell proliferation was assessed using Cell Titer-Glo (CTG) luminescent cell viability assay (Promega) according to the manufacturer's instruction. Luminescence signal was measured using an Envision plate reader (Perkin-Elmer).
(In general: ATP-based viability assays read luminescence as a measure of living cells.)

The structures appear in SMILES notation. A value given as a limit tells only on which side of the number the result lay.

For the compound `O=C1CC[C@H](N2Cc3c(OCc4ccc(CN5CCOCC5)cc4)cccc3C2=O)C(=O)N1` [CC-220], the “fold more potent in cells than lenalidomide” value in the test on neosubstrate degradation is 10 fold.

In the case of `COc1ccc(C(=O)NCc2cccc3c2CN(C2CCC(=O)NC2=O)C3=O)cc1` (stereo not shown) [Compound 25, N-((2-(2,6-dioxopiperidin-3-yl)-1-oxoisoindolin-4-yl)methyl)-4-methoxybenzamide], the concentration for half-maximal inhibition (IC50) – broadly, the concentration that inhibits the measured activity by half – on 6XHis-CRBN-DDB1 protein is more than 10 µM. In addition, the EC50 (usually the concentration at which the effect is half-maximal) with MOLM-13 cells was more than 10 µM.

On to `O=C1CCC(N2Cc3c(CNC(=O)c4ccc(Cl)cc4)cccc3C2=O)C(=O)N1` (stereo not shown) [Compound 5, 4-chloro-N-((2-(2,6-dioxopiperidin-3-yl)-1-oxoisoindolin-4-yl)methyl)benzamide], for which the IC50 at 6XHis-CRBN-DDB1 protein is 1 to 10 µM. Also, in the test on MOLM-13 cells, the EC50 was less than 1 µM.

For the compound `CCCc1ccc(C(=O)NCc2cccc3c2CN(C2CCC(=O)NC2=O)C3=O)cc1` (stereo not shown) [Compound 30, N-((2-(2,6-dioxopiperidin-3-yl)-1-oxoisoindolin-4-yl)methyl)-4-propylbenzamide], the half-inhibitory concentration (IC50) at 6XHis-CRBN-DDB1 protein was less than 1 µM. Further, the concentration for a half-maximal effect (EC50) in the test on MOLM-13 cells is less than 1 µM.

With `O=C1CCC(N2Cc3c(CNC(=O)c4ccccc4F)cccc3C2=O)C(=O)N1` (stereo not shown) [Compound 31, N-((2-(2,6-dioxopiperidin-3-yl)-1-oxoisoindolin-4-yl)methyl)-2-fluorobenzamide], the half-maximal inhibitory concentration (IC50) on 6XHis-CRBN-DDB1 protein was 1 to 10 µM. In addition, the concentration for a half-maximal effect (EC50) with MOLM-13 cells is more than 10 µM.

In the case of `O=C1CCC(N2Cc3c(CNC(=O)c4ccc(C(F)F)cc4)cccc3C2=O)C(=O)N1` (stereo not shown) [Compound 24, 4-(difluoromethyl)-N-((2-(2,6-dioxopiperidin-3-yl)-1-oxoisoindolin-4-yl)methyl)benzamide], the concentration for half-maximal inhibition (IC50) on 6XHis-CRBN-DDB1 protein lay in the range of 1 to 10 µM. The compound also came in with an EC50 in the test with MOLM-13 cells of less than 1 µM.

For `COc1ccccc1C(=O)NCc1cccc2c1CN(C1CCC(=O)NC1=O)C2=O` (stereo not shown) [Compound 29, N-((2-(2,6-dioxopiperidin-3-yl)-1-oxoisoindolin-4-yl)methyl)-2-methoxybenzamide], at 6XHis-CRBN-DDB1 protein, the IC50 is 1 to 10 µM. For the same compound, in the test with MOLM-13 cells, the EC50 is less than 1 µM.

Turning to `O=C1CCC(N2Cc3c(CNC(=O)c4ccc5nc[nH]c5c4)cccc3C2=O)C(=O)N1` (stereo not shown) [Compound 42, N-((2-(2,6-dioxopiperidin-3-yl)-1-oxoisoindolin-4-yl)methyl)-1H-benzo[d]imidazole-6-carboxamide], the 50% inhibitory concentration (IC50) at 6XHis-CRBN-DDB1 protein fell in the range of 1 to 10 µM. In the test with MOLM-13 cells, this compound yielded an EC50 of 1 to 10 µM.

Turning to `O=C1CCC(N2Cc3c(CNC(=O)c4ccc(F)c(Cl)c4)cccc3C2=O)C(=O)N1` (stereo not shown) [Compound 15, 3-chloro-N-((2-(2,6-dioxopiperidin-3-yl)-1-oxoisoindolin-4-yl)methyl)-4-fluorobenzamide], the IC50 on 6XHis-CRBN-DDB1 protein is less than 1 µM. Besides, the concentration for a half-maximal effect (EC50) with MOLM-13 cells was less than 1 µM.

For the compound `O=C1CCC(N2Cc3c(CNC(=O)c4ccc(Cl)cc4F)cccc3C2=O)C(=O)N1` (stereo not shown) [Compound 36, 4-chloro-N-((2-(2,6-dioxopiperidin-3-yl)-1-oxoisoindolin-4-yl)methyl)-2-fluorobenzamide], the 50% inhibitory concentration (IC50) on 6XHis-CRBN-DDB1 protein was less than 1 µM. Moreover, the EC50 with MOLM-13 cells is less than 1 µM.

As to `O=C1CCC(N2Cc3c(CNC(=O)c4c(F)ccc(F)c4Cl)cccc3C2=O)C(=O)N1` (stereo not shown) [Compound 33, 2-chloro-N-((2-(2,6-dioxopiperidin-3-yl)-1-oxoisoindolin-4-yl)methyl)-3,6-difluorobenzamide], at 6XHis-CRBN-DDB1 protein, the concentration for half-maximal inhibition (IC50) was less than 1 µM. For the same compound, the EC50 in the test on MOLM-13 cells is more than 10 µM.

In the case of `O=C1CCC(N2Cc3c(CNC(=O)c4cc(C(F)(F)F)cc(Cl)c4F)cccc3C2=O)C(=O)N1` (stereo not shown) [Compound 35, 3-chloro-N-((2-(2,6-dioxopiperidin-3-yl)-1-oxoisoindolin-4-yl)methyl)-2-fluoro-5-(trifluoromethyl)benzamide], the IC50 on 6XHis-CRBN-DDB1 protein is less than 1 µM. The compound also came in with a half-maximal effective concentration (EC50) in the test with MOLM-13 cells of more than 10 µM.

Consider `O=C1CCC(N2Cc3c(CNC(=O)c4cc(F)ccc4F)cccc3C2=O)C(=O)N1` (stereo not shown) [Compound 37, N-((2-(2,6-dioxopiperidin-3-yl)-1-oxoisoindolin-4-yl)methyl)-2,5-difluorobenzamide], for which the concentration for half-maximal inhibition (IC50) on 6XHis-CRBN-DDB1 protein is 1 to 10 µM. In addition, in the test with MOLM-13 cells, the EC50 is more than 10 µM.

Regarding `O=C(Cc1ccccc1Br)NCc1cccc2c1CN(C1CCC(=O)NC1=O)C2=O` (stereo not shown) [Compound 41, 2-(2-bromophenyl)-N-((2-(2,6-dioxopiperidin-3-yl)-1-oxoisoindolin-4-yl)methyl)acetamide], the IC50 on 6XHis-CRBN-DDB1 protein fell in the range of 1 to 10 µM. Also, the EC50 in the test with MOLM-13 cells was more than 10 µM.

Regarding `O=C1CCC(N2Cc3c(CNC(=O)c4ccccc4C(F)(F)F)cccc3C2=O)C(=O)N1` (stereo not shown) [Compound 4, N-((2-(2,6-dioxopiperidin-3-yl)-1-oxoisoindolin-4-yl)methyl)-2-(trifluoromethyl)benzamide], the IC50 at 6XHis-CRBN-DDB1 protein fell in the range of 1 to 10 µM. Moreover, the EC50 in the test on MOLM-13 cells is more than 10 µM.

In the case of `O=C1CCC(N2Cc3c(CNC(=O)c4cccc(C(F)(F)F)c4)cccc3C2=O)C(=O)N1` (stereo not shown) [Compound 12, N-((2-(2,6-dioxopiperidin-3-yl)-1-oxoisoindolin-4-yl)methyl)-3-(trifluoromethyl)benzamide], the IC50 at 6XHis-CRBN-DDB1 protein lay in the range of 1 to 10 µM. This compound had an EC50 in the test with MOLM-13 cells of less than 1 µM.

For `Cc1ccc(F)cc1C(=O)NCc1cccc2c1CN(C1CCC(=O)NC1=O)C2=O` (stereo not shown) [Compound 32, N-((2-(2,6-dioxopiperidin-3-yl)-1-oxoisoindolin-4-yl)methyl)-5-fluoro-2-methylbenzamide], the IC50 at 6XHis-CRBN-DDB1 protein is 1 to 10 µM. This compound also registered a concentration for a half-maximal effect (EC50) in the test on MOLM-13 cells of more than 10 µM.

In the case of `O=C1CCC(N2Cc3c(CNC(=O)c4cccc(F)c4)cccc3C2=O)C(=O)N1` (stereo not shown) [Compound 9, N-((2-(2,6-dioxopiperidin-3-yl)-1-oxoisoindolin-4-yl)methyl)-3-fluorobenzamide], at 6XHis-CRBN-DDB1 protein, the half-inhibitory concentration (IC50) lay in the range of 1 to 10 µM. In the test with MOLM-13 cells, the concentration for a half-maximal effect (EC50) is less than 1 µM.

Consider `O=C1CCC(N2Cc3c(CNC(=O)c4ccccc4Nc4ccccc4)cccc3C2=O)C(=O)N1` (stereo not shown) [Compound 45, N-((2-(2,6-dioxopiperidin-3-yl)-1-oxoisoindolin-4-yl)methyl)-2-(phenylamino)benzamide], for which, on 6XHis-CRBN-DDB1 protein, the half-inhibitory concentration (IC50) was in the range of 1 to 10 µM. Besides, in the test on MOLM-13 cells, the EC50 is less than 1 µM.
